Columns and labels:
IRAK4 = molecular target: T1, IRAK4 (Homo sapiens, UniProt Q9NWZ3); assay: IRAK4 enzymatic assay (ADP-Glo luminescence); assay type: biochemical; conditions: human recombinant His-TEV-IRAK4 (1-460), STK1-biotin peptide substrate
T1 construct: His-TEV-IRAK4 (1-460); His (N); TEV cleavage site (N)
T1 sequence (Q9NWZ3 1-460): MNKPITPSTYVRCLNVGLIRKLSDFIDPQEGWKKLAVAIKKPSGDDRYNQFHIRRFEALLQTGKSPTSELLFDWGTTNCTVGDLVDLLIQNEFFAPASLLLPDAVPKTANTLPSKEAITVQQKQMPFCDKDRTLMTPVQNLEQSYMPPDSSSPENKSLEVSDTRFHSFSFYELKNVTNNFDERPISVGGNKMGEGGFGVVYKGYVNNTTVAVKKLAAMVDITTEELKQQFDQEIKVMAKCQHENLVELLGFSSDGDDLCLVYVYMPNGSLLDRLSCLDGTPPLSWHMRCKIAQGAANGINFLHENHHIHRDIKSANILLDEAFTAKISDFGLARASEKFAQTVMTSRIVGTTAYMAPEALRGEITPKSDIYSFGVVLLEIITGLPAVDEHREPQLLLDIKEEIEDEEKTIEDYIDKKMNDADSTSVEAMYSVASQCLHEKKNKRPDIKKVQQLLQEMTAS
Experimental: IRAK4 is a human purified recombinant enzyme (His-TEV-IRAK4 (1-460)).
In this assay, IRAK4 hydrolyses ATP, autophosphorylates and phosphorylates a Serine/Threonine generic peptidic substrate (STK: 61ST1BLC from CisBio International). Measurement of IRAK-4 inhibition is performed in 384-well format based on a luminescence assay (ADP-Glo™ Kinase Assay from Promega). Purified human recombinant IRAK4 ([…]) and serial diluted compounds in DMSO (range of concentration from 10 μM to 0.5 nM) or controls (1% DMSO) are incubated for 15 minutes at RT in assay buffer containing 50 mM Hepes pH 7.0, Fatty acid-free BSA 0.1%, Dithiothreitol (DTT) 2 mM, MgCl2 10 mM, EGTA 0.5 mM, Triton X-100 0.01%, MnCl2 5 mM. The kinase reaction is then initiated by the addition of ATP ([…]) and the peptidic substrate STK1-biotin peptide (300 nM). After 2 hours of incubation at RT, the reaction is stopped and the unconsumed ATP depleted by the addition of ADP-Glo™ Reagent according to supplier instructions. After 40 minutes of incubation at RT, the Kinase Detection Reagent is then added to the assay plate according to supplier instructions. After 20 minutes of incubation at RT, the luminescence signal is measured with a plate-reading luminometer (PerkinElmer Envision or equivalent reader).

IRAK1 = molecular target: T2, IRAK1 (Homo sapiens, UniProt P51617); assay: IRAK1 enzymatic assay (ADP-Glo luminescence); assay type: biochemical; conditions: human recombinant His-TEV-IRAK1 (194-712), ATP 1 μM; read-out: IRAK 1 IC50
T2 construct: His-TEV-IRAK1 (194-712); His (N); TEV cleavage site (N)
T2 sequence (P51617 194-712): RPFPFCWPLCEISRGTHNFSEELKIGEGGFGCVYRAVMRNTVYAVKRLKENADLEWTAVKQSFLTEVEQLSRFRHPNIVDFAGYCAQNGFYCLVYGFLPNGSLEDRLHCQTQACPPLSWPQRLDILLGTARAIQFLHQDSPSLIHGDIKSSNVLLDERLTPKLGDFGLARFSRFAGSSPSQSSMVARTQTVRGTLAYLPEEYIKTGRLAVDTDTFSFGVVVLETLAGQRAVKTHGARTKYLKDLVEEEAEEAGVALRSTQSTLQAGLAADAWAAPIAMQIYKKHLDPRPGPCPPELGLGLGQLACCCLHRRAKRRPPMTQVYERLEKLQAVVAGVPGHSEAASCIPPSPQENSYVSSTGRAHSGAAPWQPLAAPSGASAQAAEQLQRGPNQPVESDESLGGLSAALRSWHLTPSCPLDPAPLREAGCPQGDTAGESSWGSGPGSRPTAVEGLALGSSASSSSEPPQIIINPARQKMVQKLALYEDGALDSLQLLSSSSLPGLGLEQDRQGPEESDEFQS
Experimental: IRAK1 is a human purified recombinant enzyme (His-TEV-IRAK1 (194-712))
In this assay, IRAK1 hydrolyses ATP and autophosphorylates. Measurement of IRAK-1 inhibition is performed in 384-well format based on luminescence assay (ADP-Glo™ Kinase Assay from Promega). Purified human recombinant IRAK1 ([…]) and serial diluted compounds in DMSO (range of concentration from 10 μM to 0.5 nM) or controls (1% DMSO) are incubated for 15 minutes at RT in assay buffer containing 50 mM Hepes pH 7.0, Fatty acid-free BSA 0.1%, Dithiothreitol (DTT) 2 mM, MgCl2 10 mM, EGTA 0.5 mM, Triton X-100 0.01%. The kinase reaction is then initiated by the addition of ATP at a concentration of 1 μM. After 2 hours of incubation at RT, the reaction is stopped and the unconsumed ATP depleted by the addition of ADP-Glo™ Reagent according to supplier instructions. After 40 minutes of incubation at RT, the Kinase Detection Reagent is then added to the assay plate according to supplier instructions. After 20 minutes of incubation at RT, the luminescence signal is measured with a luminometer (PerkinElmer Envision or equivalent reader).

[1] = system: TLR7 induced IL-6 secretion in human mononuclear cells (PBMC's); assay: TLR7 induced IL-6 in human PBMC's; assay type: cell-based; conditions: Homo sapiens, PBMC, TLR7 specific ligand 2 uM overnight, IL-6 AlphaLISA
Experimental: TLR7 Induced IL-6 in Human PBMC's
Human PBMC assay was used as one of the functional assaya to monitor the activity of IRAK1 and IRAK4 small molecule inhibitors on TLR7 induced IL-6 secretion in human mononuclear cells (PBMC's). Human PBMCs were prepared from buffy coats (whole blood enriched with leukocytes and platelets) obtained from healthy volunteers used either fresh or frozen are plated in assay media (RPMI+2% P/S/L-glu+10% HI-FBS) and pre-treated with compounds in DMSO/media (range of concentrations from 25 uM to 0.4 nM) or controls (0.25% DMSO) for 30 minutes at 37° C. in assay media. Following pre-treatment with IRAK1 and IRAK4 inhibitors, PBMC's were stimulated with TLR7 specific ligand (2 uM) overnight (16-18 hrs) at 37° C. After incubation supernatant was transferred to 384 well PE AlphaPlate-384 (6005350) and IL-6 is quantified using Perkin Elmer IL-6 Alpha LISA kit (AL223C). Plates were read on an Envision® plate reader with Alpha Technology®.

| Structure (SMILES) | IC50 (IRAK4) [µM] | IC50 (IRAK1) [µM] | IC50 [1] [µM] | melting point [°C] |
| --- | --- | --- | --- | --- |
| C=CCCn1/c(=N/C(=O)c2cccc(C(F)(F)F)c2)[nH]c2cc(C3CCN(C)C3=O)ccc21 (stereo not drawn) [Compound 17, N-[1-But-3-enyl-5-(1-methyl-2-oxo-pyrrolidin-3-yl)-1,3-dihydro-benzoimidazol-(2E)-ylidene]-3-trifluoromethyl-benzamide] | ≤ 0.1 | 0.1 to 1 | 0.1 to 1 | – |
| C=CCCn1/c(=N/C(=O)c2cccc(C(F)(F)F)c2)[nH]c2cc(C3CCCN(C)C3=O)ccc21 (stereo not drawn) [Compound 18, N-[1-But-3-enyl-5-(1-methyl-2-oxo-piperidin-3-yl)-1,3-dihydro-benzoimidazol-(2E)-ylidene]-3-trifluoromethyl-benzamide] | ≤ 0.1 | 0.1 to 1 | 0.1 to 1 | – |
| C=CCn1/c(=N/C(=O)c2cccc(C(F)(F)F)c2)[nH]c2cc(C3CCN(C)C3=O)ccc21 (stereo not drawn) [Compound 19, N-[1-Allyl-5-(1-methyl-2-oxo-pyrrolidin-3-yl)-1,3-dihydro-benzoimidazol-(2E)-ylidene]-3-trifluoromethyl-benzamide] | ≤ 0.1 | 0.1 to 1 | 0.1 to 1 | – |
| CN1CCC(c2ccc3c(c2)[nH]/c(=N\C(=O)c2cccc(C(F)(F)F)c2)n3CC(O)CO)C1=O (stereo not drawn) [Compound 20, N-[1-(2,3-Dihydroxy-propyl)-5-(1-methyl-2-oxo-pyrrolidin-3-yl)-1,3-dihydro-benzoimidazol-(2E)-ylidene]-3-trifluoromethyl-benzamide] | ≤ 0.1 | 0.1 to 1 | 0.1 to 1 | – |
| CN1CCC(c2ccc3c(c2)[nH]/c(=N\C(=O)c2cccc(C(F)(F)F)c2)n3CCC(O)CO)C1=O (stereo not drawn) [Compound 21, N-[1-(3,4-Dihydroxy-butyl)-5-(1-methyl-2-oxo-pyrrolidin-3-yl)-1,3-dihydro-benzoimidazol-(2E)-ylidene]-3-trifluoromethyl-benzamide] | ≤ 0.1 | 0.1 to 1 | ≤ 0.1 | – |
| CN1CCCC(c2ccc3c(c2)[nH]/c(=N\C(=O)c2cccc(C(F)(F)F)c2)n3CCC(O)CO)C1=O (stereo not drawn) [Compound 22, N-[1-(3,4-Dihydroxy-butyl)-5-(1-methyl-2-oxo-piperidin-3-yl)-1,3-dihydro-benzoimidazol-(2E)-ylidene]-3-trifluoromethyl-benzamide] | ≤ 0.1 | 0.1 to 1 | ≤ 0.1 | – |
| CN1CCC(c2ccc3c(c2)nc(NC(=O)c2cccc(C(F)(F)F)c2)n3CCCO)C1=O (stereo not drawn) [Compound 23, N-[1-(3-hydroxypropyl)-5-(1-methyl-2-oxopyrrolidin-3-yl)-1H-1,3-benzodiazol-2-yl]-3-(trifluoromethyl)benzamide] | ≤ 0.1 | 0.1 to 1 | ≤ 0.1 | – |
| CN1CC[C@H](c2ccc3c(c2)nc(NC(=O)c2cccc(C(F)(F)F)c2)n3CCCO)C1=O [Compound 23b, N-[1-(3-hydroxypropyl)-5-[(3R)-1-methyl-2-oxopyrrolidin-3-yl]-1H-1,3-benzodiazol-2-yl]-3-(trifluoromethyl) benzamide] | ≤ 0.1 | 0.1 to 1 | 0.1 to 1 | – |
| CN1CCC(c2ccc3c(c2)nc(NC(=O)c2cccc(C(F)F)c2)n3CCCO)C1=O (stereo not drawn) [Compound 24, 3-(difluoromethyl)-N-[1-(3-hydroxypropyl)-5-(1-methyl-2-oxopyrrolidin-3-yl)-1H-1,3-benzodiazol-2-yl]benzamide] | ≤ 0.1 | 0.1 to 1 | ≤ 0.1 | 166 to 168 |
| CN1CC(c2ccc3c(c2)nc(NC(=O)c2cccc(C(F)(F)F)c2)n3CCCO)C(C)(C)C1=O (stereo not drawn) [Compound 25, N-[1-(3-Hydroxy-propyl)-5-(1,4,4-trimethyl-5-oxo-pyrrolidin-3-yl)-1H-benzoimidazol-2-yl]-3-trifluoromethyl-benzamide] | ≤ 0.1 | ≤ 0.1 | 0.1 to 1 | 104 to 106 |
| CN1C[C@H](c2ccc3c(c2)nc(NC(=O)c2cccc(C(F)(F)F)c2)n3CCCO)C(C)(C)C1=O [Compound 25b, N-[1-(3-hydroxypropyl)-5-[(3R)-1,4,4-trimethyl-5-oxopyrrolidin-3-yl]-1H-1,3-benzodiazol-2-yl]-3-(trifluoromethyl)benzamide] | ≤ 0.1 | 0.1 to 1 | 0.1 to 1 | – |
| CN1CCOC(c2ccc3c(c2)nc(NC(=O)c2cccc(C(F)F)c2)n3CC(C)(F)CO)C1=O (stereo not drawn) [Compound 26, 3-Difluoromethyl-N-[1-(2-fluoro-3-hydroxy-2-methyl-propyl)-5-(4-methyl-3-oxo-morpholin-2-yl)-1H-benzoimidazol-2-yl]-benzamide] | ≤ 0.1 | 0.1 to 1 | 0.1 to 1 | 118 to 120 |
| CN1CCC(C)(c2ccc3c(c2)nc(NC(=O)c2cccc(C(F)(F)F)c2)n3CCCO)C1=O (stereo not drawn) [Compound 29, N-[5-(1,3-Dimethyl-2-oxo-pyrrolidin-3-yl)-1-(3-hydroxy-propyl)-1H-benzoimidazol-2-yl]-3-trifluoromethyl-benzamide] | ≤ 0.1 | 1 to 10 | – | 72 to 74 |
| CN1CCC(C)(c2ccc3c(c2)nc(NC(=O)c2cccc(C(F)F)c2)n3CCCO)C1=O (stereo not drawn) [Compound 30, 3-Difluoromethyl-N-[5-(1,3-dimethyl-2-oxo-pyrrolidin-3-yl)-1-(3-hydroxy-propyl)-1H-benzoimidazol-2-yl]-benzamide] | ≤ 0.1 | – | 1 to 10 | 78 to 81 |
| CN1CC[C@@](C)(c2ccc3c(c2)nc(NC(=O)c2cccc(C(F)F)c2)n3CCCO)C1=O [Compound 30b, N-{5-[(3S)-1,3-dimethyl-2-oxopyrrolidin-3-yl]-1-(3-hydroxypropyl)-1H-1,3-benzodiazol-2-yl}-3-(diifluoromethyl)benzamide] | ≤ 0.1 | 0.1 to 1 | 1 to 10 | – |
| CN1C(=O)CCC1(C)c1ccc2c(c1)nc(NC(=O)c1cccc(C(F)F)c1)n2CCCO (stereo not drawn) [Compound 31, 3-Difluoromethyl-N-[5-(1,2-dimethyl-5-oxo-pyrrolidin-2-yl)-1-(3-hydroxy-propyl)-1H-benzoimidazol-2-yl]-benzamide] | ≤ 0.1 | 0.1 to 1 | 1 to 10 | – |
| CN1C(=O)CC[C@@]1(C)c1ccc2c(c1)nc(NC(=O)c1cccc(C(F)F)c1)n2CCCO [Compound 31b, 3-(difluoromethyl)-N-{5-[(2S)-1,2-dimethyl-5-oxopyrrolidin-2-yl]-1-(3-hydroxypropyl)-1H-1,3-benzodiazol-2-yl}benzamide] | ≤ 0.1 | 1 to 10 | 1 to 10 | – |
